US11040981B2, “Pyrrolotriazine compounds and methods of inhibiting TAM kinases” (Syros Pharmaceuticals, Inc., priority 2017, dated 2021)

Legend:
FLT3 = biological target: T1, FLT3 (Homo sapiens, UniProt P36888); experiment: TR-FRET kinase activity assay, FLT3; type: biochemical; conditions: ATP at Km, 60 minutes
T1 sequence (P36888 27-993): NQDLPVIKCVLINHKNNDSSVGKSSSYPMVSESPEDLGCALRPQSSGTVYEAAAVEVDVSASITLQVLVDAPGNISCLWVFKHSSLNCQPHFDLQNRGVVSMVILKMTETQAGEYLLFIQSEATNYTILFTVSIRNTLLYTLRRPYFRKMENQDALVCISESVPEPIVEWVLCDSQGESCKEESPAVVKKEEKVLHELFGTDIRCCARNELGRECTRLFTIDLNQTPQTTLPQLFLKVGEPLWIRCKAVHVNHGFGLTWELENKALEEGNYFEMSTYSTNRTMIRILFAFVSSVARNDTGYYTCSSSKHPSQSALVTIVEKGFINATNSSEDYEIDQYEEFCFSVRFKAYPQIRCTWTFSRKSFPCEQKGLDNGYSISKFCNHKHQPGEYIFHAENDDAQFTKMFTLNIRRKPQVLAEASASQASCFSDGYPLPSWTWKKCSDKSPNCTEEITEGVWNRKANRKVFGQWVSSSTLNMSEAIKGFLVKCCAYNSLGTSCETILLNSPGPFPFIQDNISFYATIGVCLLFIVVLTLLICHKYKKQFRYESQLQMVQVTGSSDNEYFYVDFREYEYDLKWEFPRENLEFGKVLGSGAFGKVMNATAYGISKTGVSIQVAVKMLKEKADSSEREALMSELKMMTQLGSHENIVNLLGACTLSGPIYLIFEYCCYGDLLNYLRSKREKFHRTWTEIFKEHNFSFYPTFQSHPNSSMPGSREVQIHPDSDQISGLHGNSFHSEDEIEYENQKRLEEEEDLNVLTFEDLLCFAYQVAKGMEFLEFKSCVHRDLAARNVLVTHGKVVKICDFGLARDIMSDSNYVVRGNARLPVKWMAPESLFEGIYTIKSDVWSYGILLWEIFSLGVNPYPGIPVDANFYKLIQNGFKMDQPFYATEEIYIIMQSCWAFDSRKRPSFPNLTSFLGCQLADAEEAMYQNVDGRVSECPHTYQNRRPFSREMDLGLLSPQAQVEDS
Procedure, shortened: (§1)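 IC50 reflects the drop in TR-FRET between Eu anti-phosphotyrosine antibody and labelled peptide after a 60-minute room-temperature reaction. Buffer was 50 mM HEPES pH 7.5 with 10 mM MgCl2, 1 mM EGTA, 0.01% Brij 35 and 1 mM DTT, with ATP at Km per enzyme and EDTA quench.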

TYRO3 = biological target: T2, TYRO3 (Homo sapiens, UniProt Q06418); experiment: TR-FRET kinase activity assay, TYRO3; type: biochemical; conditions: ATP at Km, 60 minutes
T2 sequence (Q06418 41-890): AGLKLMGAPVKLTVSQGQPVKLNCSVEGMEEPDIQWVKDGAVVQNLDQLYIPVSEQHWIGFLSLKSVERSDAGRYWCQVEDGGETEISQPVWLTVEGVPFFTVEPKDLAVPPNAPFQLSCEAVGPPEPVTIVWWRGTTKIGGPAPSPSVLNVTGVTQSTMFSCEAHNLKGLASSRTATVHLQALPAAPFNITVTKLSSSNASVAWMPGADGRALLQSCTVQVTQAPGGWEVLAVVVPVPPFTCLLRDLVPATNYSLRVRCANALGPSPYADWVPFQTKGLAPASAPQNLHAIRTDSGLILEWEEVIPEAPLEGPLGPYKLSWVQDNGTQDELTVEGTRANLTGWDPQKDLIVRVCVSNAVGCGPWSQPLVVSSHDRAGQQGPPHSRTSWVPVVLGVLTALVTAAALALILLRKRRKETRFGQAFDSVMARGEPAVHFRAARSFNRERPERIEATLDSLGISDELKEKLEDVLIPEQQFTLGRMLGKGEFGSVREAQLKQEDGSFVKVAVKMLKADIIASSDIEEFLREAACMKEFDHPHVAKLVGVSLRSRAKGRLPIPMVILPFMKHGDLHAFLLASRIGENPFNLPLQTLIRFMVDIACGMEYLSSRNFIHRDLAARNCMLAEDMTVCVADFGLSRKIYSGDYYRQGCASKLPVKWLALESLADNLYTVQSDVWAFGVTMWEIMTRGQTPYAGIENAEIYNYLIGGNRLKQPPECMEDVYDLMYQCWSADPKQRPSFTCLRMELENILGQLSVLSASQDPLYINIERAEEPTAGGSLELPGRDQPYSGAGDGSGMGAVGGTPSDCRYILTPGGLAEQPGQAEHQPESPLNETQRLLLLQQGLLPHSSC
Procedure, shortened: as §1

| SMILES | IC50 (FLT3) | IC50 (TYRO3) |
| --- | --- | --- |
| C[C@@H](COC(F)F)Nc1ncc2c(-c3ccc(S(C)(=O)=O)nc3)cc([C@H]3CC[C@H](O)CC3)n2n1 [Compound 513] | 0.1 to 1 µM | ≤ 0.1 µM |
| COC[C@H](C)Nc1ncc2c(-c3cnn(C(C)(C)C(=O)N4C[C@@H](C)N[C@@H](C)C4)c3)cc([C@H]3CC[C@@H](O)CC3)n2n1 [Compound 591] | 1 to 10 µM | ≤ 0.1 µM |
| COC[C@H](C)Nc1ncc2c(-c3cnn(C(C)(C)C(=O)N4CCOCC4)c3)cc([C@@H]3CCc4cn[nH]c4C3)n2n1 [Compound 594] | 1 to 10 µM | ≤ 0.1 µM |
| COC[C@H](C)Nc1ncc2c(-c3ccnc(N4CCc5cnn(C)c5C4)c3)cc([C@H]3CC[C@H](O)CC3)n2n1 [Compound 518] | 1 to 10 µM | ≤ 0.1 µM |
| C[C@@H](CC(F)(F)F)Nc1ncc2c(-c3cncc([S@@](C)(=N)=O)c3)cc([C@H]3CC[C@H](O)CC3)n2n1 [Compound 583] | 0.1 to 1 µM | ≤ 0.1 µM |
| COC[C@H](C)Nc1ncc2c(-c3ccnc([S@](C)(=N)=O)c3)cc([C@H]3CC[C@H](O)CC3)n2n1 [Compound 575] | 1 to 10 µM | ≤ 0.1 µM |
| COCC(C)Nc1ncc2c(-c3ccc4cc[nH]c4c3)cc(C3CCC(O)CC3)n2n1 (stereo not drawn) [Compound 538] | 1 to 10 µM | ≤ 0.1 µM |
| COC[C@H](C)Nc1ncc2c([C@H]3CC[C@H](C(=O)N4CC5(COC5)C4)CC3)cc([C@H]3CC[C@H](O)CC3)n2n1 [Compound 578] | 1 to 10 µM | ≤ 0.1 µM |
| COC[C@H](C)Nc1ncc2c([C@H]3CC[C@H](C(C)=O)CC3)cc([C@H]3CC[C@H](O)CC3)n2n1 [Compound 576] | 1 to 10 µM | ≤ 0.1 µM |
| COC[C@H](C)Nc1ncc2c(-c3cnn(C(C)(C)C(=O)N4CCO[C@@H](C(C)(C)O)C4)c3)cc([C@H]3CC[C@H](O)CC3)n2n1 [Compound 585] | 1 to 10 µM | ≤ 0.1 µM |
| COCC(C)Nc1ncc2c(-c3ccc(C(C)N4CCOCC4)cc3)cc(C3CCC(O)CC3)n2n1 (stereo not drawn) [Compound 143] | ≤ 0.1 µM | ≤ 0.1 µM |
| C[C@@H](CC(F)(F)F)Nc1ncc2c(-c3ccc([S@](C)(=N)=O)nc3)cc([C@H]3CC[C@H](O)CC3)n2n1 [Compound 540] | ≤ 0.1 µM | ≤ 0.1 µM |
| COC[C@H](C)Nc1ncc2c(-c3cnn(C(C)(C)C(=O)N4CCOC(C(C)(C)O)C4)c3)cc([C@H]3CC[C@H](O)CC3)n2n1 (stereo partly drawn) [Compound 586] | 1 to 10 µM | ≤ 0.1 µM |
| COC[C@H](C)Nc1ncc2c(-c3cnn(C(C)(C)C(=O)N4CCOCC4)c3)cc([C@H]3CC[C@@H](O)CC3)n2n1 [Compound 547] | 0.1 to 1 µM | ≤ 0.1 µM |
| COC[C@H](C)Nc1ncc2c(-c3cnn(C(C)(C)C(=O)N4CCOCC4)c3)cc([C@H]3CC[C@](C)(O)CC3)n2n1 [Compound 560] | 0.1 to 1 µM | ≤ 0.1 µM |
| COCC(C)Nc1ncc2c(-c3ccc4ocnc4c3)cc(C3CCC(O)CC3)n2n1 (stereo not drawn) [Compound 550] | 0.1 to 1 µM | ≤ 0.1 µM |
| COC[C@H](C)Nc1ncc2c(-c3cnn(C(C)(C)C(=O)N4CC[C@@H](O)C4)c3)cc([C@H]3CC[C@H](O)CC3)n2n1 [Compound 555] | 1 to 10 µM | ≤ 0.1 µM |
| COC[C@H](C)Nc1ncc2c(-c3cnn(C(C)(C)c4nnc(C5CC5)o4)c3)cc([C@H]3CC[C@H](O)CC3)n2n1 [Compound 563] | 0.1 to 1 µM | ≤ 0.1 µM |
| COC[C@H](C)Nc1ncc2c(-c3ccnc(N4CCN(CC5COC5)CC4)c3)cc([C@H]3CC[C@H](O)CC3)n2n1 [Compound 512] | 0.1 to 1 µM | ≤ 0.1 µM |
| CCOCC(C)Nc1ncc2c(-c3ccc(CN4CCN(C)CC4)cc3)cc(C3CCC(O)CC3)n2n1 (stereo not drawn) [Compound 138] | 0.1 to 1 µM | ≤ 0.1 µM |

| SMILES | IC50 (FLT3) | IC50 (TYRO3) |
| --- | --- | --- |
| COC[C@H](C)Nc1ncc2c(-c3cncc([S@](C)(=N)=O)c3)cc([C@H]3CC[C@@H](O)CC3)n2n1 [Compound 572] | > 10 µM | ≤ 0.1 µM |
| COCC(C)Nc1ncc2c(-c3cccc(N4CCOCC4)c3)cc(C3CCC(O)CC3)n2n1 (stereo not drawn) [Compound 562] | ≤ 0.1 µM | ≤ 0.1 µM |
| COCC(C)Nc1ncc2c(-c3cnn(C4COC4)c3)cc(C3CCNC(=O)C3)n2n1 (mixture of isomers) [Compound 592] | 1 to 10 µM | ≤ 0.1 µM |
| COC[C@H](C)Nc1ncc2c(-c3ccnc(N4CCOCC4)c3)cc([C@H]3CC[C@](C)(O)CC3)n2n1 [Compound 549] | 0.1 to 1 µM | ≤ 0.1 µM |
| COC[C@H](C)Nc1ncc2c(C3=CCOCC3)cc([C@H]3CC[C@H](O)CC3)n2n1 [Compound 141] | 0.1 to 1 µM | ≤ 0.1 µM |
| COC[C@H](C)Nc1ncc2c(-c3cncc([S@@](C)(=N)=O)c3)cc([C@H]3CC[C@H](O)CC3)n2n1 [Compound 573] | > 10 µM | ≤ 0.1 µM |
| COC[C@H](C)Nc1ncc2c(-c3ccc(C(=O)O)cc3)cc([C@H]3CC[C@H](O)CC3)n2n1 [Compound 139] | 1 to 10 µM | ≤ 0.1 µM |
| CCS(=O)(=O)N1CC(CC#N)(n2cc(-c3cc([C@H]4CC[C@H](O)CC4)n4nc(N[C@@H](C)COC)ncc34)cn2)C1 [Compound 567] | 1 to 10 µM | ≤ 0.1 µM |
| COC[C@H](C)Nc1ncc2c(-c3ccc(CN4CCN(C)CC4)nc3)cc([C@H]3CC[C@H](O)CC3)n2n1 [Compound 565] | 0.1 to 1 µM | ≤ 0.1 µM |
| COCC(C)Nc1ncc2c(-c3ccc4[nH]cnc4c3)cc(C3CCC(O)CC3)n2n1 (stereo not drawn) [Compound 553] | 0.1 to 1 µM | ≤ 0.1 µM |
| COC[C@H](C)Nc1ncc2c(-c3ccc([S@](C)(=N)=O)nc3)cc([C@H]3CC[C@H](O)CC3)n2n1 [Compound 532] | 1 to 10 µM | ≤ 0.1 µM |
| C[C@@H](CC(F)(F)F)Nc1ncc2c(-c3ccnc([S@@](C)(=N)=O)c3)cc([C@H]3CC[C@H](O)CC3)n2n1 [Compound 581] | ≤ 0.1 µM | ≤ 0.1 µM |
| COCC(C)Nc1ncc2c(-c3cccc(-c4nnc(C)o4)c3)cc(C3CCC(O)CC3)n2n1 (stereo not drawn) [Compound 551] | 1 to 10 µM | ≤ 0.1 µM |
| CC[C@]1(O)CC[C@H](c2cc(-c3ccnc(N4CCOCC4)c3)c3cnc(N[C@@H](C)COC)nn32)CC1 [Compound 568] | 0.1 to 1 µM | ≤ 0.1 µM |
| CC(C)(O)C1CN(c2cc(-c3cc([C@H]4CC[C@H](O)CC4)n4nc(NCCOC(F)F)ncc34)ccn2)CCO1 (stereo partly drawn) [Compound 557] | 0.1 to 1 µM | ≤ 0.1 µM |
| COC[C@H](C)Nc1ncc2c(-c3ccnc(C4COC4)c3)cc([C@H]3CC[C@H](O)CC3)n2n1 [Compound 566] | 0.1 to 1 µM | ≤ 0.1 µM |
| COC[C@H](C)Nc1ncc2c(-c3cnn(C(C)(C)C(=O)N4CC[C@H](O)C4)c3)cc([C@H]3CC[C@H](O)CC3)n2n1 [Compound 554] | 1 to 10 µM | ≤ 0.1 µM |
| CC(Nc1ncc2c(-c3cnn(C4COC4)c3)cc(C3CCC(O)CC3)n2n1)c1ccccn1 (stereo not drawn) [Compound 544] | 1 to 10 µM | ≤ 0.1 µM |
| COC[C@H](C)Nc1ncc2c(-c3cnn(C(C)(C)C(=O)N4CCCC5(COC5)C4)c3)cc([C@H]3CC[C@H](O)CC3)n2n1 [Compound 516] | 1 to 10 µM | ≤ 0.1 µM |
